Values after ≈ are worked out from the molar mass of the structure shown.
Assays:
[1] = target: T1, acid ceramidase (Homo sapiens, UniProt Q13510); experiment: Acid ceramidase inhibition, biochemical fluorescent assay with cell lysates overexpressing acid ceramidase, substrate Rbm14-12; settings: substrate Rbm14-12 6.3 μM, pH 4.5, 1 hr preincubation at RT
T1 construct: Cell lysates overexpressing acid ceramidase were used as the enzyme source; expressed in transfected cells
T1 sequence (Q13510 22-395): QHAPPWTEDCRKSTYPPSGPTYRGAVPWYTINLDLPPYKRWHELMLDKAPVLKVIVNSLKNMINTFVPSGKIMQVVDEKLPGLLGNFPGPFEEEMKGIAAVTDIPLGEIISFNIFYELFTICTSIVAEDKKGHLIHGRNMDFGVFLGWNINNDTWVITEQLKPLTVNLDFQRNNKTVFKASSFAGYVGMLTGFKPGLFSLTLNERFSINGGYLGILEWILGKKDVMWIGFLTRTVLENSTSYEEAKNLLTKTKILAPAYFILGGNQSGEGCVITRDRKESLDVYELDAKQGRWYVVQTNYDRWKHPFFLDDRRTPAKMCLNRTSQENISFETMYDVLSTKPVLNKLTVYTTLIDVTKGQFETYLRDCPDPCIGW
In short: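 Lysate of cells overexpressing acid ceramidase (10 μg protein) preincubated with compound dose series 1 hr at RT in 25 mM NaAC, 100 mM NaCl, pH 4.5, then reacted 1 hr with 6.3 μM Rbm14-12. Stopped with NaIO4/glycine buffer pH 10.6, fluorescence ex360/em446; IC50 by four-parameter fit.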

[2] = Compound solubility in water

Compound | IC50 [1] [nM] | solubility [2] [µg/mL]
CC(C)CCNC(=O)n1c(=O)n(C)c2cccnc21 [Example 104, N-iso-Pentyl-1-methyl-2-oxo-1,2-dihydro-3H-imidazo[4,5-b]pyridine-3-carboxamide] | 200 to 1000 | 17 (≈ 64.8 µM)
CC(C)CCNC(=O)n1c(=O)n(C)c2ncccc21 [Example 105, N-iso-Pentyl-3-methyl-2-oxo-2,3-dihydro-1H-imidazo[4,5-b]pyridine-1-carboxamide] | > 1000 | 17.4 (≈ 66.3 µM)
CC(C)CCNC(=O)n1cnc2ccccc21 [Example 107, N-iso-Pentyl-1H-benzo[d]imidazole-1-carboxamide] | < 200 | 13.9 (≈ 60.1 µM)
CCCCNC(=O)n1cnc2c(C3CCN(C)CC3)cc(C)cc21 [Example 107a] | 200 to 1000 | 31.7 (≈ 96.5 µM)
Cc1ccc(CCNC(=O)n2cnc3ccccc32)cc1 [Example 108, N-(4-Methylphenethyl)-1H-benzo[d]imidazole-1-carboxamide] | < 200 | 6.8 (≈ 24.3 µM)
Cc1cc(C2CCN(C)CC2)c2ncn(C(=O)NCCC(C)C)c2c1 [Example 112a] | 200 to 1000 | 22.9 (≈ 66.9 µM)
CC(C)CCNC(=O)n1cnc2c(C3CCN(C)CC3)cc(Cl)cc21 [Example 112b] | 200 to 1000 | 20 (≈ 55.1 µM)
CC(C)CCNC(=O)n1cnc2c(N3CCOCC3)cccc21 [Example 118, N-iso-Pentyl-4-morpholino-1H-benzo[d]imidazole-1-carboxamide] | 200 to 1000 | 21 (≈ 66.4 µM)

Now from value to molecule:

IC50 [1] [nM] | solubility [2] [µg/mL] | Compound
200 to 1000 | 13.7 (≈ 40.4 µM) | COc1nc2ccc(-c3cncnc3)cc2n1C(=O)NCCC(C)C [Example 106, N-iso-Pentyl-2-methoxy-6-(pyrimidin-5-yl)-1H-benzo[d]imidazole-1-carboxamide]
> 1000 | 28.7 (≈ 88.2 µM) | CCC(C)NC(=O)n1c(OC)nc2ccc(-c3cncnc3)cc21 (stereo not drawn) [Example 109a, N-(sec-Butyl)-2-methoxy-6-(pyrimidin-5-yl)-1H-benzo[d]imidazole-1-carboxamide]
> 1000 | 32.4 (≈ 99.6 µM) | CCC(C)NC(=O)n1c(OC)nc2cc(-c3cncnc3)ccc21 (stereo not drawn) [Example 109b, N-(sec-butyl)-2-methoxy-5-(pyrimidin-5-yl)-1H-benzo[d]imidazole-1-carboxamide]
> 1000 | 18 (≈ 53 µM) | CC(C)CCNC(=O)n1c(=O)n(C)c2ncc(-c3cccnc3)cc21 [Example 110, N-iso-Pentyl-3-methyl-2-oxo-6-(pyridin-3-yl)-2,3-dihydro-1H-imidazo[4,5-b]pyridine-1-carboxamide]
< 200 | 6 (≈ 17.1 µM) | COc1nc2ccc(-c3cncnc3)cc2n1C(=O)NC1CCCCC1 [Example 111a, N-Cyclohexyl-2-methoxy-6-(pyrimidin-5-yl)-1H-benzo[d]imidazole-1-carboxamide]
< 200 | 22 (≈ 62.6 µM) | COc1nc2cc(-c3cncnc3)ccc2n1C(=O)NC1CCCCC1 [Example 111b, N-cyclohexyl-2-methoxy-5-(pyrimidin-5-yl)-1H-benzo[d]imidazole-1-carboxamide]
200 to 1000 | 16.8 (≈ 60.8 µM) | CCOc1nc2ncccc2n1C(=O)NCCC(C)C [Example 114, 2-Ethoxy-N-iso-pentyl-1H-imidazo[4,5-b]pyridine-1-carboxamide]
> 1000 | 15.4 (≈ 52.9 µM) | COc1cccc2c1nc(OC)n2C(=O)NCCC(C)C [Example 115, N-iso-Pentyl-2,4-dimethoxy-1H-benzo[d]imidazole-1-carboxamide]
> 1000 | 14.1 (≈ 46.5 µM) | CCOc1nc2c(OC)cccc2n1C(=O)NCCC1CC1 [Example 116, N-(2-Cyclopropylethyl)-2-ethoxy-4-methoxy-1H-benzo[d]imidazole-1-carboxamide]
200 to 1000 | 23.4 (≈ 80.3 µM) | CCC(C)CNC(=O)n1c(OC)nc2c(OC)cccc21 (stereo not drawn) [Example 117, 2,4-Dimethoxy-N-(2-methylbutyl)-1H-benzo[d]imidazole-1-carboxamide]
